Measurements: patent US6852673B2, “Herbicidal pyridine compounds” (BASF Aktiengesellschaft, priority 1998, dated 2005)

Key:
Format in all cases: in vivo
Lamium purpureum (LAMPU) [1] = test: Post-emergence herbicidal evaluation, purple deadnettle; conditions: rated 2 to 4 weeks after treatment
Experimental: (§1) [table] [table] […] These acetone solutions are diluted with water and the resulting formulations applied at dosage levels equivalent of about 0.03 to 0.4 kg per hectare of test compound per pot. After spraying the plants are placed on greenhouse benches and are cared for in the usual manner, commensurate with conventional greenhouse practices. From 2 to 4 weeks after treatment, the seedling plants are examined and rated according to the rating system provided above. A rating 0 indicates growth as untreated control, a rating 9 indicates death.

[2] = tested on: Abutilon theophrasti (ABUTH); test: Pre-emergence herbicidal evaluation, velvetleaf
Excerpt: (§2) The pre-emergence herbicidal activity of the compounds of the present invention is exemplified by the following test in which the seeds of a variety of monocotyledonous and dicotyledonous plants are seperately mixed with potting soil and planted on top of approximately one inch of soil in separate pots. After planting, the pots are sprayed with the selected aqueous acetone solution containing test compound in sufficient quantity to provide the equivalent of about 0.0125 to 0.4 kg per hectare of test compound per pot. The treated pots are then placed on greenhouse benches, watered and cared for in accordance with conventional greenhouse procedures. From 2 to 4 weeks after treatment, the tests are terminated and each pot is examined and rated according to the rating system set forth below.

[3] = tested on: Echinochloa grus galli (ECHCG); test: Pre-emergence herbicidal evaluation, barnyard grass
Excerpt: as §2

[4] = tested on: Triticum aestivum (TRZAW); test: Post-emergence herbicidal evaluation, winter wheat; conditions: rated 2 to 4 weeks after treatment
Experimental: as §1

[5] = tested on: Alopecurus myosuroides (ALOMY); test: Post-emergence herbicidal evaluation, black grass; conditions: rated 2 to 4 weeks after treatment
Experimental: as §1

[6] = tested on: Triticum aestivum (TRZAW); test: Pre-emergence herbicidal evaluation, winter wheat
Excerpt: as §2

Glycine max (GLXMA) = test: Pre-emergence herbicidal evaluation, soyabeans
Excerpt: as §2

Zea mays (ZEAMX) = test: Pre-emergence herbicidal evaluation, maize
Excerpt: as §2

Setaria viridis (SETVI) = test: Pre-emergence herbicidal evaluation, green foxtail
Excerpt: as §2

[7] = tested on: Matricaria inodora (MATIN); test: Post-emergence herbicidal evaluation, mayweed; conditions: rated 2 to 4 weeks after treatment
Experimental: as §1

[8] = tested on: Ipomoea hederacea (IPOHE); test: Post-emergence herbicidal evaluation, morning glory; conditions: rated 2 to 4 weeks after treatment
Experimental: as §1

[9] = tested on: Alopecurus myosuroides (ALOMY); test: Pre-emergence herbicidal evaluation, black grass
Excerpt: as §2

Stellaria media (STEME) [10] = test: Pre-emergence herbicidal evaluation, chickweed
Excerpt: as §2

Solanum nigrum (SOLNI) = test: Post-emergence herbicidal evaluation, black nightshade; conditions: rated 2 to 4 weeks after treatment
Experimental: as §1

Galium aparine (GALAP) = test: Post-emergence herbicidal evaluation, cleaver; conditions: rated 2 to 4 weeks after treatment
Experimental: as §1

[11] = tested on: Ambrosia artemiisifolia (AMBEL); test: Post-emergence herbicidal evaluation, ragweed; conditions: rated 2 to 4 weeks after treatment
Experimental: as §1

Oryza sativum (ORYSA) [12] = test: Post-emergence herbicidal evaluation, rice; conditions: rated 2 to 4 weeks after treatment
Experimental: as §1

Oryza sativum (ORYSA) [13] = test: Pre-emergence herbicidal evaluation, rice
Excerpt: as §2

[14] = tested on: Ipomoea hederacea (IPOHE); test: Pre-emergence herbicidal evaluation, morning glory
Excerpt: as §2

Lamium purpureum (LAMPU) [15] = test: Pre-emergence herbicidal evaluation, purple deadnettle
Excerpt: as §2

[16] = tested on: Ambrosia artemiisifolia (AMBEL); test: Pre-emergence herbicidal evaluation, ragweed
Excerpt: as §2

[17] = tested on: Abutilon theophrasti (ABUTH); test: Post-emergence herbicidal evaluation, velvetleaf; conditions: rated 2 to 4 weeks after treatment
Experimental: as §1

[18] = tested on: Digitaria sanguinalis (DIGSA); test: Post-emergence herbicidal evaluation, large crabgrass; conditions: rated 2 to 4 weeks after treatment
Experimental: as §1

Stellaria media (STEME) [19] = test: Post-emergence herbicidal evaluation, chickweed; conditions: rated 2 to 4 weeks after treatment
Experimental: as §1

Hordeum vulgare (HORVW) = test: Post-emergence herbicidal evaluation, winter barley; conditions: rated 2 to 4 weeks after treatment
Experimental: as §1

## CC(Cl)=CCOc1cc(C)cc(Oc2cc(C(F)(F)F)nn2C)n1 [Example 11]
Lamium purpureum (LAMPU) [1]; dose 0.03 kg/ha
  LAMPU rating: 0 (0 - No effect)
Lamium purpureum (LAMPU) [1]; dose 0.1 kg/ha
  LAMPU rating: 3 (3 - Moderate effect)
Lamium purpureum (LAMPU) [1]; dose 0.4 kg/ha
  LAMPU rating: 8 (8 - Approaching complete kill)
[2]
  activity against Abutilon: superior activity
[2]; dose 0.013 kg/ha
  ABUTH rating: 3 (3 - Moderate effect)
[2]; dose 0.025 kg/ha
  ABUTH rating: 7 (7 - Good herbicidal effect)
[2]; dose 0.1 kg/ha
  ABUTH rating: 9 (9 - Complete kill)
[2]; dose 0.4 kg/ha
  ABUTH rating: 9 (9 - Complete kill)
[3]; dose 0.013 kg/ha
  ECHCG rating: 4 (4 - Injury)
[3]; dose 0.025 kg/ha
  ECHCG rating: 6 (6 - Herbicidal effect)
[3]; dose 0.1 kg/ha
  ECHCG rating: 8 (8 - Approaching complete kill)
[3]; dose 0.4 kg/ha
  ECHCG rating: 9 (9 - Complete kill)
[4]; dose 0.03 kg/ha
  TRZAW rating: 3 (3 - Moderate effect)
[4]; dose 0.1 kg/ha
  TRZAW rating: 3 (3 - Moderate effect)
[4]; dose 0.4 kg/ha
  TRZAW rating: 3 (3 - Moderate effect)
[5]; dose 0.03 kg/ha
  ALOMY rating: 6 (6 - Herbicidal effect)
[5]; dose 0.1 kg/ha
  ALOMY rating: 8 (8 - Approaching complete kill)
[5]; dose 0.4 kg/ha
  ALOMY rating: 8 (8 - Approaching complete kill)
[6]; dose 0.013 kg/ha
  TRZAW rating: 0 (0 - No effect)
[6]; dose 0.025 kg/ha
  TRZAW rating: 2 (2 - Slight effect)
[6]; dose 0.1 kg/ha
  TRZAW rating: 2 (2 - Slight effect)
[6]; dose 0.4 kg/ha
  TRZAW rating: 4 (4 - Injury)
Glycine max (GLXMA)
  selectivity in soybeans: quite selective
Glycine max (GLXMA); dose 0.013 kg/ha
  GLXMA rating: 0 (0 - No effect)
Glycine max (GLXMA); dose 0.025 kg/ha
  GLXMA rating: 1 (1 - Trace effect)
Glycine max (GLXMA); dose 0.1 kg/ha
  GLXMA rating: 2 (2 - Slight effect)
Glycine max (GLXMA); dose 0.4 kg/ha
  GLXMA rating: 4 (4 - Injury)
Zea mays (ZEAMX); dose 0.013 kg/ha
  ZEAMX rating: 1 (1 - Trace effect)
Zea mays (ZEAMX); dose 0.025 kg/ha
  ZEAMX rating: 2 (2 - Slight effect)
Zea mays (ZEAMX); dose 0.1 kg/ha
  ZEAMX rating: 3 (3 - Moderate effect)
Zea mays (ZEAMX); dose 0.4 kg/ha
  ZEAMX rating: 5 (5 - Definite injury)
Setaria viridis (SETVI)
  activity against Setaria: superior activity
Setaria viridis (SETVI); dose 0.013 kg/ha
  SETVI rating: 7 (7 - Good herbicidal effect)
Setaria viridis (SETVI); dose 0.025 kg/ha
  SETVI rating: 8 (8 - Approaching complete kill)
Setaria viridis (SETVI); dose 0.1 kg/ha
  SETVI rating: 9 (9 - Complete kill)
Setaria viridis (SETVI); dose 0.4 kg/ha
  SETVI rating: 9 (9 - Complete kill)
[7]; dose 0.03 kg/ha
  MATIN rating: 7 (7 - Good herbicidal effect)
[7]; dose 0.1 kg/ha
  MATIN rating: 8 (8 - Approaching complete kill)
[7]; dose 0.4 kg/ha
  MATIN rating: 8 (8 - Approaching complete kill)
[8]; dose 0.03 kg/ha
  IPOHE rating: 6 (6 - Herbicidal effect)
[8]; dose 0.1 kg/ha
  IPOHE rating: 9 (9 - Complete kill)
[8]; dose 0.4 kg/ha
  IPOHE rating: 9 (9 - Complete kill)
[9]; dose 0.013 kg/ha
  ALOMY rating: 6 (6 - Herbicidal effect)
[9]; dose 0.025 kg/ha
  ALOMY rating: 9 (9 - Complete kill)
[9]; dose 0.1 kg/ha
  ALOMY rating: 9 (9 - Complete kill)
[9]; dose 0.4 kg/ha
  ALOMY rating: 9 (9 - Complete kill)
Stellaria media (STEME) [10]
  activity against Stellaria: superior activity
Stellaria media (STEME) [10]; dose 0.013 kg/ha
  STEME rating: 8 (8 - Approaching complete kill)
Stellaria media (STEME) [10]; dose 0.025 kg/ha
  STEME rating: 9 (9 - Complete kill)
Stellaria media (STEME) [10]; dose 0.1 kg/ha
  STEME rating: 9 (9 - Complete kill)
Stellaria media (STEME) [10]; dose 0.4 kg/ha
  STEME rating: 9 (9 - Complete kill)
Solanum nigrum (SOLNI); dose 0.03 kg/ha
  SOLNI rating: 3 (3 - Moderate effect)
Solanum nigrum (SOLNI); dose 0.1 kg/ha
  SOLNI rating: 6 (6 - Herbicidal effect)
Solanum nigrum (SOLNI); dose 0.4 kg/ha
  SOLNI rating: 8 (8 - Approaching complete kill)
Galium aparine (GALAP); dose 0.03 kg/ha
  GALAP rating: 6 (6 - Herbicidal effect)
Galium aparine (GALAP); dose 0.1 kg/ha
  GALAP rating: 9 (9 - Complete kill)
Galium aparine (GALAP); dose 0.4 kg/ha
  GALAP rating: 9 (9 - Complete kill)
[11]; dose 0.03 kg/ha
  AMBEL rating: 3 (3 - Moderate effect)
[11]; dose 0.1 kg/ha
  AMBEL rating: 7 (7 - Good herbicidal effect)
[11]; dose 0.4 kg/ha
  AMBEL rating: 8 (8 - Approaching complete kill)
Oryza sativum (ORYSA) [12]; dose 0.03 kg/ha
  ORYSA rating: 1 (1 - Trace effect)
Oryza sativum (ORYSA) [12]; dose 0.1 kg/ha
  ORYSA rating: 3 (3 - Moderate effect)
Oryza sativum (ORYSA) [12]; dose 0.4 kg/ha
  ORYSA rating: 4 (4 - Injury)
Oryza sativum (ORYSA) [13]; dose 0.013 kg/ha
  ORYSA rating: 1 (1 - Trace effect)
Oryza sativum (ORYSA) [13]; dose 0.025 kg/ha
  ORYSA rating: 1 (1 - Trace effect)
Oryza sativum (ORYSA) [13]; dose 0.1 kg/ha
  ORYSA rating: 2 (2 - Slight effect)
Oryza sativum (ORYSA) [13]; dose 0.4 kg/ha
  ORYSA rating: 3 (3 - Moderate effect)
[14]; dose 0.013 kg/ha
  IPOHE rating: 2 (2 - Slight effect)
[14]; dose 0.025 kg/ha
  IPOHE rating: 4 (4 - Injury)
[14]; dose 0.1 kg/ha
  IPOHE rating: 8 (8 - Approaching complete kill)
[14]; dose 0.4 kg/ha
  IPOHE rating: 9 (9 - Complete kill)
Lamium purpureum (LAMPU) [15]; dose 0.013 kg/ha
  LAMPU rating: 5 (5 - Definite injury)
Lamium purpureum (LAMPU) [15]; dose 0.025 kg/ha
  LAMPU rating: 8 (8 - Approaching complete kill)
Lamium purpureum (LAMPU) [15]; dose 0.1 kg/ha
  LAMPU rating: 8 (8 - Approaching complete kill)
Lamium purpureum (LAMPU) [15]; dose 0.4 kg/ha
  LAMPU rating: 9 (9 - Complete kill)
[16]; dose 0.013 kg/ha
  AMBEL rating: 7 (7 - Good herbicidal effect)
[16]; dose 0.025 kg/ha
  AMBEL rating: 9 (9 - Complete kill)
[16]; dose 0.1 kg/ha
  AMBEL rating: 9 (9 - Complete kill)
[16]; dose 0.4 kg/ha
  AMBEL rating: 9 (9 - Complete kill)
[17]; dose 0.03 kg/ha
  ABUTH rating: 5 (5 - Definite injury)
[17]; dose 0.1 kg/ha
  ABUTH rating: 7 (7 - Good herbicidal effect)
[17]; dose 0.4 kg/ha
  ABUTH rating: 8 (8 - Approaching complete kill)
[18]; dose 0.03 kg/ha
  DIGSA rating: 9 (9 - Complete kill)
[18]; dose 0.1 kg/ha
  DIGSA rating: 9 (9 - Complete kill)
[18]; dose 0.4 kg/ha
  DIGSA rating: 9 (9 - Complete kill)
Stellaria media (STEME) [19]; dose 0.03 kg/ha
  STEME rating: 4 (4 - Injury)
Stellaria media (STEME) [19]; dose 0.1 kg/ha
  STEME rating: 6 (6 - Herbicidal effect)
Stellaria media (STEME) [19]; dose 0.4 kg/ha
  STEME rating: 8 (8 - Approaching complete kill)
Hordeum vulgare (HORVW); dose 0.03 kg/ha
  HORVW rating: 3 (3 - Moderate effect)
Hordeum vulgare (HORVW); dose 0.1 kg/ha
  HORVW rating: 4 (4 - Injury)
Hordeum vulgare (HORVW); dose 0.4 kg/ha
  HORVW rating: 4 (4 - Injury)
